In PubChem BioAssay AID268 (DTP/NCI, 2004):
Values joined by “and” are separate entries in the source; they are usually repeats but may differ in a detail not shown here. Equal entries are not always repeated.

Test system: CD2F1 mice, P1798 lymphosarcoma sc, tumor weight T/C
Test: NCI In Vivo Anticancer Drug Screen. Data for tumor model P1798 Lymphosarcoma (subcutaneous) in CD2F1 (CDF1) mice
Details: endpoint: mean tumor weight, higher = larger tumour
Method: The antitumor activity of compounds was measured in mice bearing transplantable tumors. Survival or tumor size were measured and the results are expressed as the measurement made in the treated group (T) divided by the measurement made in the vehicle treated control group (C). The tumor model used in this assay is P1798 Lymphosarcoma (subcutaneous) in CD2F1 (CDF1) mice

[1] = dose: 50.0 mg/kg/injection, schedule: Q01DX010 (ip), vehicle: saline
[2] = dose: 100.0 mg/kg/injection, schedule: Q01DX010 (ip), vehicle: saline
[3] = dose: 200.0 mg/kg/injection, schedule: Q01DX010 (ip), vehicle: saline
[4] = dose: 12.5 mg/kg/injection, schedule: Q01DX010 (sc), vehicle: steriod suspending solution
[5] = dose: 25.0 mg/kg/injection, schedule: Q01DX010 (sc), vehicle: steriod suspending solution
[6] = dose: 50.0 mg/kg/injection, schedule: Q01DX010 (sc), vehicle: steriod suspending solution
[7] = dose: 100.0 mg/kg/injection, schedule: Q01DX010 (sc), vehicle: steriod suspending solution
[8] = dose: 400.0 mg/kg/injection, schedule: Q01DX010 (ip), vehicle: saline

Structure (SMILES): NC(=O)n1cccn1
- T/C (dose: 25.0 mg/kg/injection, schedule: Q01DX010 (ip), vehicle: saline): 84 % of control
- T/C [1]: 75 % of control
- T/C [2]: 71 % of control
- T/C [3]: 45 % of control

Structure (SMILES): C=C1C[C@H]2[C@@H]3C=C(C)C4=CC(=O)CC[C@]4(C)[C@H]3CC[C@]2(C)[C@@]1(OC(C)=O)C(C)=O
- T/C [4]: 109 % of control and 116 % of control
- T/C [5]: 84 % of control
- T/C [6]: 120 % of control
- T/C (dose: 125.0 mg/kg/injection, schedule: Q01DX001 (sc), vehicle: steriod suspending solution): 87 % of control
- T/C (dose: 125.0 mg/kg/injection, schedule: Q01DX010 (sc), vehicle: steriod suspending solution): 124 % of control
- T/C (dose: 125.0 mg/kg/injection, schedule: Q02DX005 (sc), vehicle: steriod suspending solution): 117 % of control
- T/C (dose: 250.0 mg/kg/injection, schedule: Q01DX001 (sc), vehicle: steriod suspending solution): 151 % of control and 160 % of control
- T/C (dose: 250.0 mg/kg/injection, schedule: Q01DX010 (sc), vehicle: steriod suspending solution): 76 % of control
- T/C (dose: 250.0 mg/kg/injection, schedule: Q02DX005 (sc), vehicle: steriod suspending solution): 110 % of control
- T/C (dose: 500.0 mg/kg/injection, schedule: Q01DX001 (sc), vehicle: steriod suspending solution): 74 % of control and 80 % of control
- T/C (dose: 500.0 mg/kg/injection, schedule: Q01DX010 (sc), vehicle: steriod suspending solution): 85 % of control
- T/C (dose: 500.0 mg/kg/injection, schedule: Q02DX005 (sc), vehicle: steriod suspending solution): 96 % of control
- T/C (dose: 1000.0 mg/kg/injection, schedule: Q01DX001 (sc), vehicle: steriod suspending solution): 100 % of control and 112 % of control

Structure (SMILES): O=C(O)CCCc1ccc(N(CCCl)CCCl)cc1
- T/C (dose: 1.56 mg/kg/injection, schedule: Q01DX010 (ip), vehicle: saline): 69 % of control
- T/C (dose: 3.13 mg/kg/injection, schedule: Q01DX010 (ip), vehicle: saline): 31 % of control and 52 % of control
- T/C (dose: 6.25 mg/kg/injection, schedule: Q01DX010 (ip), vehicle: saline): 32 % of control and 37 % of control
- T/C (dose: 12.5 mg/kg/injection, schedule: Q01DX010 (ip), vehicle: saline): 3 % of control

Structure (SMILES): CC(=O)OC(C)(C)/C=C/C(=O)[C@](C)(O)[C@H]1[C@H](O)C[C@@]2(C)[C@@H]3CC=C4[C@@H](C[C@H](O)C(=O)C4(C)C)[C@]3(CO)C(=O)C[C@]12C
- T/C (dose: 0.16 mg/kg/injection, schedule: Q01DX010 (ip), vehicle: saline): 108 % of control
- T/C (dose: 0.25 mg/kg/injection, schedule: Q01DX010 (ip), vehicle: saline): 110 % of control
- T/C (dose: 0.38 mg/kg/injection, schedule: Q01DX010 (ip), vehicle: saline): 104 % of control

Structure (SMILES): N#CCSc1ncnc2nc[nH]c12
- T/C (dose: 7.5 mg/kg/injection, schedule: Q01DX010 (ip), vehicle: saline): 87 % of control
- T/C (dose: 15.0 mg/kg/injection, schedule: Q01DX010 (ip), vehicle: saline): 56 % of control
- T/C (dose: 30.0 mg/kg/injection, schedule: Q01DX010 (ip), vehicle: saline): 97 % of control and 109 % of control
- T/C (dose: 60.0 mg/kg/injection, schedule: Q01DX010 (ip), vehicle: saline): 97 % of control and 108 % of control

Structure (SMILES): CC(=O)OCC(=O)[C@@]1(O)CC[C@H]2[C@@H]3CCC4=CC(=O)C=C[C@]4(C)[C@H]3[C@@H](O)C[C@@]21C
- T/C (dose: 2.5 mg/kg/injection, schedule: Q01DX Z (sc), vehicle: steriod suspending solution): 92 % of control
- T/C (dose: 5.0 mg/kg/injection, schedule: Q01DX010 (sc), vehicle: steriod suspending solution): 20 % of control
- T/C (dose: 5.0 mg/kg/injection, schedule: Q01DX Z (sc), vehicle: steriod suspending solution): 107 % of control
- T/C (dose: 10.0 mg/kg/injection, schedule: Q01DX010 (sc), vehicle: steriod suspending solution): 4 % of control
- T/C (dose: 10.0 mg/kg/injection, schedule: Q01DX Z (sc), vehicle: steriod suspending solution): 100 % of control and 88 % of control
- T/C (dose: 20.0 mg/kg/injection, schedule: Q01DX010 (sc), vehicle: steriod suspending solution): 5 % of control
- T/C (dose: 20.0 mg/kg/injection, schedule: Q01DX Z (sc), vehicle: steriod suspending solution): 119 % of control
- T/C (dose: 40.0 mg/kg/injection, schedule: Q01DX010 (sc), vehicle: steriod suspending solution): 5 % of control
- T/C (dose: 40.0 mg/kg/injection, schedule: Q01DX Z (sc), vehicle: steriod suspending solution): 77 % of control
- T/C (dose: 80.0 mg/kg/injection, schedule: Q01DX Z (sc), vehicle: steriod suspending solution): 57 % of control

Structure (SMILES): Cc1cc(C(C)(C)C)ccc1O
- T/C (dose: 6.2 mg/kg/injection, schedule: Q01DX011 (ip), vehicle: carboxymethylcellulose (CMC)): 47 % of control
- T/C (dose: 12.5 mg/kg/injection, schedule: Q01DX011 (ip), vehicle: carboxymethylcellulose (CMC)): 105 % of control
- T/C (dose: 25.0 mg/kg/injection, schedule: Q01DX011 (ip), vehicle: carboxymethylcellulose (CMC)): 106 % of control

Structure (SMILES): C[C@]12C=CC(=O)C=C1CC[C@@H]1[C@@H]2CC[C@]2(C)OC(=O)CC[C@@H]12
- T/C [4]: 107 % of control and 112 % of control
- T/C [5]: 101 % of control and 77 % of control
- T/C [7]: 111 % of control and 115 % of control

Structure (SMILES): C=C(C)C(=O)O[C@H]1CC2=C[C@@H](C[C@@]3(C)O[C@@H]3[C@H]3OC(=O)C(=C)[C@@H]31)OC2=O
- T/C (dose: 2.5 mg/kg/injection, schedule: Q01DX011 (sc), vehicle: saline): 94 % of control
- T/C (dose: 5.0 mg/kg/injection, schedule: Q01DX011 (sc), vehicle: saline): 73 % of control
- T/C (dose: 10.0 mg/kg/injection, schedule: Q01DX011 (sc), vehicle: saline): 116 % of control

Structure (SMILES): C[C@]12CC[C@@H]3c4ccc(O)cc4CC[C@H]3[C@@H]1CC[C@@H]2O
- T/C (dose: 6.25 mg/kg/injection, schedule: Q01DX010 (sc), vehicle: steriod suspending solution): 80 % of control and 90 % of control
- T/C [4]: 70 % of control and 86 % of control
- T/C [5]: 77 % of control and 81 % of control
- T/C [6]: 100 % of control and 82 % of control

Structure (SMILES): Cc1nc(N2CC2)nc(N2CC2)c1[N+](=O)[O-]
- T/C (dose: 1.25 mg/kg/injection, schedule: Q01DX010 (ip), vehicle: saline): 63 % of control and 82 % of control
- T/C (dose: 2.5 mg/kg/injection, schedule: Q01DX010 (ip), vehicle: saline): 73 % of control and 84 % of control

Structure (SMILES): Cc1cn(C2OC(CO)C(O)C2O)c(=O)[nH]c1=O (stereo not given)
- T/C (dose: 62.5 mg/kg/injection, schedule: Q01DX010 (ip), vehicle: saline): 97 % of control
- T/C [2]: 67 % of control
- T/C (dose: 125.0 mg/kg/injection, schedule: Q01DX010 (ip), vehicle: saline): 96 % of control
- T/C [3]: 80 % of control
- T/C (dose: 250.0 mg/kg/injection, schedule: Q01DX010 (ip), vehicle: saline): 72 % of control
- T/C [8]: 85 % of control
- T/C (dose: 500.0 mg/kg/injection, schedule: Q01DX010 (ip), vehicle: saline): 69 % of control
- T/C (dose: 800.0 mg/kg/injection, schedule: Q01DX010 (ip), vehicle: saline): 75 % of control

Structure (SMILES): N#Cc1ccc(S(N)(=O)=O)cc1
- T/C (dose: 22.0 mg/kg/injection, schedule: Q01DX010 (ip), vehicle: saline): 70 % of control
- T/C (dose: 33.0 mg/kg/injection, schedule: Q01DX010 (ip), vehicle: saline): 54 % of control
- T/C (dose: 49.0 mg/kg/injection, schedule: Q01DX010 (ip), vehicle: saline): 67 % of control
- T/C (dose: 73.0 mg/kg/injection, schedule: Q01DX010 (ip), vehicle: saline): 35 % of control

Structure (SMILES): Nc1nc(N)c2nc(CNc3ccc(C(=O)NC(CCC(=O)O)C(=O)O)cc3)cnc2n1 (stereo not given)
- T/C (dose: 50.0 micrograms/kg/injection, schedule: Q01DX010 (ip), vehicle: other): 110 % of control
- T/C (dose: 100.0 micrograms/kg/injection, schedule: Q01DX010 (ip), vehicle: other): 100 % of control
- T/C (dose: 200.0 micrograms/kg/injection, schedule: Q01DX010 (ip), vehicle: other): 79 % of control

Structure (SMILES): COC1=C(N)C(=O)c2nc(-c3nc(C(=O)O)c(C)c(-c4ccc(OC)c(OC)c4O)c3N)ccc2C1=O
- T/C (dose: 0.06 mg/kg/injection, schedule: Q01DX010 (ip), vehicle: other): 45 % of control
- T/C (dose: 0.09 mg/kg/injection, schedule: Q01DX010 (ip), vehicle: other): 48 % of control
- T/C (dose: 0.13 mg/kg/injection, schedule: Q01DX010 (ip), vehicle: other): 43 % of control
- T/C (dose: 0.2 mg/kg/injection, schedule: Q01DX010 (ip), vehicle: saline): 28 % of control

Structure (SMILES): Nc1c(N=Nc2ccc([N+](=O)[O-])cc2)c(S(=O)(=O)O)cc2cc(S(=O)(=O)O)c(N=Nc3ccc(Sc4ccc(N=Nc5ccc(O)cc5)cc4)cc3)c(O)c12 (tested in a mixture with another compound)
- T/C [1]: 119 % of control
- T/C [2]: 76 % of control
- T/C [3]: 31 % of control
- T/C [8]: 20 % of control

Structure (SMILES): CC1CCC2C(C)C3C(CC4C5CC=C6CC(OC7OC(CO)C(O)C(OC8OC(CO)C(O)C(O)C8O)C7OC7OC(C)C(O)C(O)C7O)CCC6(C)C5CCC43C)N2C1 (stereo not given)
- T/C [5]: 65 % of control
- T/C [6]: 44 % of control
- T/C [7]: 16 % of control
- T/C (dose: 200.0 mg/kg/injection, schedule: Q01DX010 (sc), vehicle: steriod suspending solution): 9 % of control and 26 % of control
- T/C (dose: 400.0 mg/kg/injection, schedule: Q01DX010 (sc), vehicle: steriod suspending solution): 30 % of control

Structure (SMILES): CC(=O)NCCCCCCCCCCNC(C)=O
- T/C [1]: 96 % of control
- T/C [2]: 113 % of control
- T/C [3]: 93 % of control
- T/C [8]: 76 % of control
